Data on 52 sequences can be found in the supplement of paper PMC11208160.
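Note: IS621 bridge recombinase in Escherichia coli cells against a fixed T5 target plasmid.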

This series in a line: recombinant UMI read abundance after kanamycin selection (control-corrected) (log10(CPM+1)); higher = more efficient recombination; extreme values may be limits of the assay; sequences stand for … in AGTGCAGAGAAAATCGGCCAGTTTTCTCTGCCTGCAGTCCGCATGCCGTGGGACCCCTTGGGTTCTAACCTGTTGCCTAGATTTATGCAGCGGACTGCCTTTCTCCCAAAGTGATAAACCGG…AGGTTGGTTTCACT; site = the 11-nt donor. The method, boiled down: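 Counts of recombinant UMIs were reported as log10(CPM+1). Before that, they were converted to CPM, averaged over replicates and scaled using control-derived factors. They came from PCR across the donor–target junction after Escherichia coli carrying the pair library and target plasmid was plated on IPTG (0.07 mM) plus kanamycin, or unselected, in two replicates each.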
Turning to “TGCACCGCATGGACCGGTTTTCCCGGTAATCCGTATTTGCG (site TACACCGCTCG)”, the “recombinant UMI read abundance (log10)” value was 0.0133.
Take “TGCACCGCATGGACCGGTTTTCCCGGTAATCCGTATTTGCG (site TCCACCGCTCG)”: the “recombinant UMI read abundance (log10)” value was 0.0173.
The figure for “TGCACCGCATGGACCGGTTTTCCCGGTAATCCGTATTTGCG (site TGCACCGCTCG)” is 0.0216.
The figure for “TGCACCGCATGGACCGGTTTTCCCGGTAATCCGTATTTGCG (site TTCACCGCTCG)” is 0.00682; for “TGCAGCACATGGACCGGTTTTCCCGGTAATCCGTATTTGCG (site TGCAGCACTCG)” it is 0.686; for “TGCAGTGCATGGACCGGTTTTCCCGGTAATCCGTATTTGTA (site TGCAGTGCTTA)” it is 0.853.
Regarding “TGCATCCCATGGACCGGTTTTCCCGGTAATCCGTATTTGAA (site TGCATCCCTTT)”, the “recombinant UMI read abundance (log10)” value came out at 0.335.
The figure for “TGCATTCCATGGACCGGTTTTCCCGGTAATCCGTATTTGTT (site TGCATTCCTAA)” is 0.
Next, “TGCCAGGCATGGACCGGTTTTCCCGGTAATCCGTATTTGTC (site TGCCAGGCTGA)”: 0.
Next, “TGCCATTCATGGACCGGTTTTCCCGGTAATCCGTATTTGAT (site TGCCATTCTAT)”: 0.
For “TGCCCGGCATGGACCGGTTTTCCCGGTAATCCGTATTTGGC (site TGACCGGCTGC)”, the “recombinant UMI read abundance (log10)” value worked out at 0.0166.
Regarding “TGCCCGGCATGGACCGGTTTTCCCGGTAATCCGTATTTGGC (site TGCCCGGCTGC)”, the “recombinant UMI read abundance (log10)” value was determined as 0.
As to “TGCCCGGCATGGACCGGTTTTCCCGGTAATCCGTATTTGGC (site TGGCCGGCTGC)”, the “recombinant UMI read abundance (log10)” value was 0.
The figure for “TGCCCGGCATGGACCGGTTTTCCCGGTAATCCGTATTTGGC (site TGTCCGGCTGC)” is 0; for “TGCCGATCATGGACCGGTTTTCCCGGTAATCCGTATTTGCG (site TGCCGATCTCG)” it is 0.225.
Next, “TGCCGTACATGGACCGGTTTTCCCGGTAATCCGTATTTGCT (site AGCCGTACTAG)”: 0.792; “TGCCGTACATGGACCGGTTTTCCCGGTAATCCGTATTTGCT (site CGCCGTACTAG)”: 0.514.
The figure for “TGCCGTACATGGACCGGTTTTCCCGGTAATCCGTATTTGCT (site GGCCGTACTAG)” is 0.
Turning to “TGCCGTACATGGACCGGTTTTCCCGGTAATCCGTATTTGCT (site TGCCGTACTAG)”, the “recombinant UMI read abundance (log10)” value amounted to 1.25.
“TGCGACACATGGACCGGTTTTCCCGGTAATCCGTATTTGGT (site TGCGACACTAC)”: the “recombinant UMI read abundance (log10)” value is 0.00309.
Next, “TGCGAGGCATGGACCGGTTTTCCCGGTAATCCGTATTTGGA (site TGCGAGGCTTC)”: 0.00911; “TGCGTTACATGGACCGGTTTTCCCGGTAATCCGTATTTGTT (site TGCGTTACTAA)”: 0.237.
Next, “TGCTAGGCATGGACCGGTTTTCCCGGTAATCCGTATTTGAT (site TGCTAGGCTAA)”: 0.0172; “TGCTAGGCATGGACCGGTTTTCCCGGTAATCCGTATTTGAT (site TGCTAGGCTAC)”: 0.0154.
Next, “TGCTAGGCATGGACCGGTTTTCCCGGTAATCCGTATTTGAT (site TGCTAGGCTAG)”: 0; “TGCTAGGCATGGACCGGTTTTCCCGGTAATCCGTATTTGAT (site TGCTAGGCTAT)”: 0.326.
For “TGCTATGCATGGACCGGTTTTCCCGGTAATCCGTATTTGGT (site TGCTAAGCTAC)”, the “recombinant UMI read abundance (log10)” value stood at 0.0239.
Turning to “TGCTATGCATGGACCGGTTTTCCCGGTAATCCGTATTTGGT (site TGCTACGCTAC)”, the “recombinant UMI read abundance (log10)” value turned out to be 0.0173.
The figure for “TGCTATGCATGGACCGGTTTTCCCGGTAATCCGTATTTGGT (site TGCTAGGCTAC)” is 0.00428; for “TGCTATGCATGGACCGGTTTTCCCGGTAATCCGTATTTGGT (site TGCTATGCTAC)” it is 0.262.
Next, “TGCTATTCATGGACCGGTTTTCCCGGTAATCCGTATTTGTA (site TGCTATTCTTA)”: 1.33.
Consider “TGCTCACCATGGACCGGTTTTCCCGGTAATCCGTATTTGTA (site TGCTCACCTTA)”, for which the “recombinant UMI read abundance (log10)” value was determined as 0.0115.
“TGCTGGGCATGGACCGGTTTTCCCGGTAATCCGTATTTGCC (site TGCTGGGCTGG)”: the “recombinant UMI read abundance (log10)” value amounted to 0.00658.
Next, “TGCTTATCATGGACCGGTTTTCCCGGTAATCCGTATTTGTG (site TGCTTATCTCA)”: 1.
The figure for “TGCTTGCCATGGACCGGTTTTCCCGGTAATCCGTATTTGAA (site TGCTTGCCTTT)” is 0.0149.
Next, “TGGAAGACATGGACCGGTTTTCCCGGTAATCCGTATTTGCA (site AGGAAGACTTG)”: 1.64; “TGGAAGACATGGACCGGTTTTCCCGGTAATCCGTATTTGCA (site CGGAAGACTTG)”: 1.44.
For the sequence “TGGAAGACATGGACCGGTTTTCCCGGTAATCCGTATTTGCA (site GGGAAGACTTG)”, the “recombinant UMI read abundance (log10)” value amounted to 0.
The figure for “TGGAAGACATGGACCGGTTTTCCCGGTAATCCGTATTTGCA (site TGGAAGACTTG)” is 2.67; for “TGGAAGTCATGGACCGGTTTTCCCGGTAATCCGTATTTGCA (site AGGAAGACTTG)” it is 0.00562.
Next, “TGGAAGTCATGGACCGGTTTTCCCGGTAATCCGTATTTGCA (site TGGAAGTCTTG)”: 3.25.
The figure for “TGGAATCCATGGACCGGTTTTCCCGGTAATCCGTATTTGTT (site AGGAATCCTAA)” is 0.
Take “TGGAATCCATGGACCGGTTTTCCCGGTAATCCGTATTTGTT (site CGGAATCCTAA)”: the “recombinant UMI read abundance (log10)” value was determined as 0.
In the case of “TGGAATCCATGGACCGGTTTTCCCGGTAATCCGTATTTGTT (site GGGAATCCTAA)”, the “recombinant UMI read abundance (log10)” value was 0.
Next, “TGGAATCCATGGACCGGTTTTCCCGGTAATCCGTATTTGTT (site TGGAATCCTAA)”: 0.
In the case of “TGGACGGCATGGACCGGTTTTCCCGGTAATCCGTATTTGGC (site TGGACGGCTGC)”, the “recombinant UMI read abundance (log10)” value was determined as 1.89.
Take “TGGACGGCATGGACCGGTTTTCCCGGTAATCCGTATTTGGC (site TGGCCGGCTGC)”: the “recombinant UMI read abundance (log10)” value came out at 0.327.
The figure for “TGGACGGCATGGACCGGTTTTCCCGGTAATCCGTATTTGGC (site TGGGCGGCTGC)” is 0; for “TGGACGGCATGGACCGGTTTTCCCGGTAATCCGTATTTGGC (site TGGTCGGCTGC)” it is 0.392.
On to “TGGACGTCATGGACCGGTTTTCCCGGTAATCCGTATTTGTT (site TGGACGTCTAA)”, for which the “recombinant UMI read abundance (log10)” value amounted to 0.483.
Next, “TGGACTACATGGACCGGTTTTCCCGGTAATCCGTATTTGAC (site AGGACTACTGT)”: 0; “TGGACTACATGGACCGGTTTTCCCGGTAATCCGTATTTGAC (site CGGACTACTGT)”: 0.
